Results reported in patent publication US20070128217A1 (priority 2003, published 2007).

What was measured:
[1] = system: rabbit serum obtained by immunizing a rabbit with the SARS-CoV strain Frankfurt 1; format: binding; design: Binding of a rabbit serum to linear peptides / Binding of a rabbit serum to looped peptides / Rabbit serum linear peptides / Rabbit serum looped peptides / Binding of a rabbit serum to linear peptides of protein N of SARS-CoV Urbani (Rabbit serum linear peptides) / Binding of a rabbit serum to looped/cyclic peptides of protein N of SARS-CoV Urbani (Rabbit serum looped peptides): unit not given here
[2] = system: control sera (pooled serum of ten healthy LUMC hospital workers; commercial negative donor pooled serum from the Dutch bloodbank); format: binding, human; design: Binding of Control serum LUMC to linear peptides / Binding of Control serum Blood-bank to linear peptides / Binding of Control serum LUMC to looped peptides / Binding of Control Serum Blood-Bank to Looped peptides / Binding of Control serum LUMC to linear peptides of the protein M of SARS-CoV Urbani / Binding of Control serum Blood-bank to linear peptides of the protein M of SARS-CoV Urbani / Binding of Control serum LUMC to looped peptides of the protein M of SARS-CoV Urbani / Binding of Control Serum Blood-Bank to Looped peptides of the protein M of SARS-CoV Urbani: unit not given here
[3] = system: antibodies in sera from SARS patients (sera 1a, 1b, 2, 6, 37, 62, London, SARS-yellow, SARS-green); format: binding, human; design: Binding of serum 6 to linear peptides of protein X1 of SARS-CoV Urbani / Binding of serum 37 to linear peptides of protein X1 of SARS-CoV Urbani / Binding of serum 6 to looped/cyclic peptide (PEPSCAN-ELISA) / Binding of serum 37 to looped/cyclic peptide (PEPSCAN-ELISA) / Binding of serum 37 to looped/cyclic peptides of protein X1 of SARS-CoV Urbani / Binding of serum 6 to linear peptides of protein X2 / Binding of serum 37 to linear peptides of protein X2 / Binding of serum 37 to looped/cyclic peptides of protein X2 of SARS-CoV Urbani / Binding of serum 6 to linear peptides of protein M of SARS-CoV Urbani / Binding of serum 37 to linear peptides of protein M of SARS-CoV Urbani / Binding of serum 6 to looped/cyclic peptides of protein M of SARS-CoV Urbani / Binding of serum 37 to looped/cyclic peptides of protein M of SARS-CoV Urbani / Binding of serum 6 to linear peptides of protein X3 of SARS-CoV Urbani / Binding of serum 37 to linear peptides of protein X3 of SARS-CoV Urbani / Binding of serum 37 to looped/cyclic peptides of protein X3 of SARS-CoV Urbani / Binding of serum 6 to linear peptides of protein X4 of SARS-CoV Urbani / Binding of serum 37 to linear peptides of protein X4 of SARS-CoV Urbani / Binding of serum 37 to looped/cyclic peptides of protein X4 of SARS-CoV Urbani / Binding of serum 6 to linear peptides of protein X5 of SARS-CoV Urbani / Binding of serum 37 to linear peptides of protein X5 of SARS-CoV Urbani / Binding of serum 37 to looped/cyclic peptides of protein X5 of SARS-CoV Urbani / Binding of serum 6 to linear peptides of protein N of SARS-CoV Urbani / Binding of serum 37 to linear peptides of protein N of SARS-CoV Urbani / Binding of serum 6 to linear peptide (PEPSCAN-ELISA) / Binding of serum 1a to looped/cyclic peptides of protein N of SARS-CoV Urbani / Binding of serum 1b to looped/cyclic peptides of protein N of SARS-CoV Urbani / Binding of serum 2 to looped/cyclic peptides of protein N of SARS-CoV Urbani / Binding of serum 6 to looped/cyclic peptides of protein N of SARS-CoV Urbani / Binding of serum 37 to looped/cyclic peptides of protein N of SARS-CoV Urbani / Binding of serum 62 to looped/cyclic peptides of protein N of SARS-CoV Urbani / Binding of serum London to looped/cyclic peptides of protein N of SARS-CoV Urbani / Binding of serum SARS-green to looped/cyclic peptides of protein N of SARS-CoV Urbani: unit not given here

Sequence | Binding of a rabbit serum to linear peptides [1] | Binding of a rabbit serum to looped peptides [1] | Binding of Control Serum Blood-Bank to Looped peptides [2] | Binding of Control serum Blood-bank to linear peptides [2] | Binding of Control serum LUMC to linear peptides [2] | Binding of Control serum LUMC to looped peptides [2] | Binding of serum 1a to linear peptides of protein X2 [3] | Binding of serum 1a to looped/cyclic peptides of protein X2 of SARS-CoV Urbani [3] | Binding of serum 1b to linear peptides of protein X2 [3] | Binding of serum 1b to looped/cyclic peptides of protein X2 of SARS-CoV Urbani [3] | Binding of serum 2 to linear peptides of protein X2 [3] | Binding of serum 2 to looped/cyclic peptides of protein X2 of SARS-CoV Urbani [3] | Binding of serum 6 to linear peptides of protein X2 [3] | Binding of serum 6 to looped/cyclic peptides of protein X2 of SARS-CoV Urbani [3] | Binding of serum 37 to linear peptides of protein X2 [3] | Binding of serum 37 to looped/cyclic peptides of protein X2 of SARS-CoV Urbani [3] | Binding of serum 62 to linear peptides of protein X2 [3] | Binding of serum 62 to looped/cyclic peptides of protein X2 of SARS-CoV Urbani [3] | Binding of serum London to linear peptides of protein X2 [3] | Binding of serum London to looped/cyclic peptides of protein X2 of SARS-CoV Urbani [3] | other results
TTSLSLHKLLQTLVL | 0.1 | 0.4 | 0.6 | 0.6 | 0.4 | 0.6 | 0.5 | 0.5 | 0.5 | 0.4 | 0.3 | 0.4 | 0.5 | 0.5 | 0.5 | 0.5 | 0.5 | 0.6 | 0.5 | 1.3 | Binding of serum SARS-green to linear peptides of protein X2 [3]: 0.6; Binding of serum SARS-green to looped/cyclic peptides of protein X2 of SARS-CoV Urbani [3]: 0.3; Binding of serum SARS-yellow to linear peptides of protein X2 [3]: 0.3; Binding of serum SARS-yellow to looped/cyclic peptides of protein X2 of SARS-CoV Urbani [3]: 0.5
TVSQIQLSLLKVTAF | 0.6 | 0.5 | 0.7 | 0.5 | 0.6 | 0.7 | 0.5 | 0.5 | 0.4 | 0.5 | 0.4 | 0.4 | 0.5 | 1.0 | 0.6 | 0.4 | 0.4 | 0.6 | 0.3 | 1.4 | Binding of serum SARS-green to linear peptides of protein X2 [3]: 0.1; Binding of serum SARS-green to looped/cyclic peptides of protein X2 of SARS-CoV Urbani [3]: 0.4; Binding of serum SARS-yellow to linear peptides of protein X2 [3]: 0.6; Binding of serum SARS-yellow to looped/cyclic peptides of protein X2 of SARS-CoV Urbani [3]: 0.7
TVYHITVSQIQLSLL | 0.7 | 0.3 | 0.6 | 0.5 | 0.5 | 0.5 | 0.6 | 0.4 | 0.5 | 0.4 | 0.5 | 0.3 | 0.4 | 0.2 | 0.6 | 0.4 | 0.4 | 0.5 | 0.4 | 0.2 | Binding of serum SARS-green to linear peptides of protein X2 [3]: 0.1; Binding of serum SARS-green to looped/cyclic peptides of protein X2 of SARS-CoV Urbani [3]: 0.2; Binding of serum SARS-yellow to linear peptides of protein X2 [3]: 0.7; Binding of serum SARS-yellow to looped/cyclic peptides of protein X2 of SARS-CoV Urbani [3]: 0.3
TYSTAWLCALGKVLP |  |  | 0.5 | 0.9 | 0.5 | 0.6 |  |  |  |  |  |  |  |  |  |  |  |  |  |  | Rabbit serum linear peptides [1]: 0.6; Rabbit serum looped peptides [1]: 0.7; Binding of serum 1a to linear peptides of protein X5 of SARS-CoV Urbani [3]: 0.8; Binding of serum 1a to looped/cyclic peptides of protein X5 of SARS-CoV Urbani [3]: 0.5; Binding of serum 1b to linear peptides of protein X5 of SARS-CoV Urbani [3]: 0.6; Binding of serum 1b to looped/cyclic peptides of protein X5 of SARS-CoV Urbani [3]: 0.3; Binding of serum 2 to linear peptides of protein X5 of SARS-CoV Urbani [3]: 0.9; Binding of serum 2 to looped/cyclic peptides of protein X5 of SARS-CoV Urbani [3]: 1.1; Binding of serum 6 to linear peptides of protein X5 of SARS-CoV Urbani [3]: 0.6; Binding of serum 6 to looped/cyclic peptides of protein X5 of SARS-CoV Urbani [3]: 0.4; Binding of serum 37 to linear peptides of protein X5 of SARS-CoV Urbani [3]: 0.7; Binding of serum 37 to looped/cyclic peptides of protein X5 of SARS-CoV Urbani [3]: 0.6; Binding of serum 62 to linear peptides of protein X5 of SARS-CoV Urbani [3]: 0.8; Binding of serum 62 to looped/cyclic peptides of protein X5 of SARS-CoV Urbani [3]: 0.8; Binding of serum London to linear peptides of protein X5 of SARS-CoV Urbani [3]: 0.7; Binding of serum London to looped/cyclic peptides of protein X5 of SARS-CoV Urbani [3]: 0.2; Binding of serum SARS-green to linear peptides of protein X5 of SARS-CoV Urbani [3]: 0.7; Binding of serum SARS-green to looped/cyclic peptides of protein X5 of SARS-CoV Urbani [3]: 0.3; Binding of serum SARS-yellow to linear peptides of protein X5 of SARS-CoV Urbani [3]: 0.4; Binding of serum SARS-yellow to looped/cyclic peptides of protein X5 of SARS-CoV Urbani [3]: 0.5
